Data reported in US20150224190A1, “Combination of a phosphoinositide 3-kinase inhibitor and an inhibitor of the IL-8/CXCR interaction” (priority 2012, published 2015).

Legend:
pAKT = assay: Target inhibition after single doses: pAKT levels in breast cancer lines; type: cell-based, human; settings: up to 20 hours after treatment, MDA 468, MDA 231 LM2 and mouse 4T-1 breast cancer lines
Protocol: (§1) MDA231, lung metastatic subline MDA231 LM2 (Minn et al., 2005) and SUM159 human breast cancer cells, as well as the Balb/c tumor-derived mammary cancer lines 4T-1 and 168FARN (Aslakson and Miller, 1992), were propagated as previously described. All other cell lines were obtained from and were cultured according to the protocols of ATCC. For treatment with inhibitors, cells were synchronized without serum overnight and then supplemented with culture medium containing the inhibitor(s). For experiments with doxycycline-inducible shRNAs, 500 ng/ml of doxycycline (Sigma) was added to the medium and experiments performed 48 h later. Cell viability assays, cell cycle and cell death measurements were performed at 0.5% FCS in order to avoid masking effects of growth factors present under full-serum conditions.
Cells for Western Blotting and ELISA were lysed with RIPA buffer. […]
(§2) The present inventors applied single doses of COMPOUND A, a dual PI3K and mTOR inhibitor, and analyzed target inhibition and potential signaling pathway crosstalks after 2, 4, 8 and 20 h hours of treatment. […] While RAD001 readily activated JAK2 starting at 4 hours of treatment, they observed a later response with BKM120 treatment starting at 8 hours after adding the compound. […]

JAK2/STAT5 = JAK2/STAT5 phosphorylation in breast cancer cell lines (pJAK2 ELISA, pSTAT5 immunoblot); type: cell-based, human; settings: in vitro, after 4 hours-8 hours of treatment
Protocol: as §1
Cells for Western Blotting and ELISA were lysed with RIPA buffer. Xenograft lysates were prepared by lysing kryo-homogenized tumor powder in RIPA buffer (50 mM Tris-HCl pH 8, 150 mM NaCl, 1% NP-40, 0.5% sodium deoxycholate, 0.1% SDS. RIPA was supplemented with 1× protease inhibitor cocktail (Complete Mini, Roche), 0.2 mmol/L sodium-vanadate, 20 mM sodium fluoride and 1 mmol/L phenylmethylsulfonyl fluoride. For IRS-1 immunoprecipitation, cell lysates containing 500-1000 μg of protein were incubated with 1 μg of antibody and 20-50 μl of protein A-Sepharose beads (Zymed Laboratories, Inc., South San Francisco, Calif.) overnight at 4° C. Immunoprecipitates or whole cell lysates (30-80 μg) were subjected to SDS-PAGE, transferred to PVDF membranes (Immobilon-P, Millipore) and blocked for 1 hr at room temperature with 5% milk in PBS-0.1% Tween 20. Membranes were then incubated overnight with antibodies as indicated and exposed to secondary HRP-coupled anti-mouse or -rabbit antibody at 1:5-10,000 for 1 h at room temperature. Proteins were visualized using an ECL kit (Amersham) or an enhanced chemiluminescence detection system (Pierce Biotechnology). In each of the studies presented, the results shown are typical of at least three independent experiments. The following antibodies were used: anti-JAK2 (Cell Signaling), anti-JAK1 (Cell Signaling), anti-pSTAT5 (Tyr694, Cell Signaling), anti-STAT5 (STAT5A&B, Cell Signaling), anti-STAT3 (Cell Signaling), anti-pSTAT3 (Tyr705, Cell Signaling), anti-AKT pan (Cell Signaling), anti-pAKT (Thr308 and Ser473, Cell Signaling), anti-ERK2 (Santa Cruz), anti-S6 (Cell Signaling), anti-pS6 (Ser235/236, Cell Signaling), anti-PARP (Cell Signaling), anti-MCL1 (Cell Signaling), anti-BIM (EL, L and S isoforms, Cell Signaling), anti-pIGF1R/plnsR (Invitrogen), anti-IGF1Rbeta (Cell Signaling), anti-InsRbeta (Santa Cruz), anti-IRS1 (Upstate), anti-plRS1 (Tyr612, Calbiochem).
For assessing pJAK2 levels, an ELISA assay (Tyr1007/1008, Invitrogen) was applied because of cross-reactivity of all pJAK2 antibodies tested. Interleukin-8 levels in RIPA lysates, cell culture supernatants and mouse tail vein blood plasma were measured by ELISA, as well (Biolegend). […]
as §2

pSTAT3 = pSTAT3 levels on treatment; type: cell-based; settings: BEZ235 treatment
Protocol: Cells for Western Blotting and ELISA were lysed with RIPA buffer. Xenograft lysates were prepared by lysing kryo-homogenized tumor powder in RIPA buffer (50 mM Tris-HCl pH 8, 150 mM NaCl, 1% NP-40, 0.5% sodium deoxycholate, 0.1% SDS. RIPA was supplemented with 1× protease inhibitor cocktail (Complete Mini, Roche), 0.2 mmol/L sodium-vanadate, 20 mM sodium fluoride and 1 mmol/L phenylmethylsulfonyl fluoride. For IRS-1 immunoprecipitation, cell lysates containing 500-1000 μg of protein were incubated with 1 μg of antibody and 20-50 μl of protein A-Sepharose beads (Zymed Laboratories, Inc., South San Francisco, Calif.) overnight at 4° C. Immunoprecipitates or whole cell lysates (30-80 μg) were subjected to SDS-PAGE, transferred to PVDF membranes (Immobilon-P, Millipore) and blocked for 1 hr at room temperature with 5% milk in PBS-0.1% Tween 20. […]
as §2

Cn1c(=O)n(-c2ccc(C(C)(C)C#N)cc2)c2c3cc(-c4cnc5ccccc5c4)ccc3ncc21 [COMPOUND A, 2-methyl-2-[4-(3-methyl-2-oxo-8-quinolin-3-yl-2,3-dihydro-imidazo[4,5-c]quinolin-1-yl)-phenyl]-propionitrile]
pAKT levels (pAKT): reduced | pJAK2 (JAK2/STAT5): considerable upregulation | pSTAT5 (JAK2/STAT5): considerable upregulation | Levels of pSTAT3 (pSTAT3): largely unaffected
